{"source": "patent US4038402A", "about": "“Method of effecting antihistaminic, antiserotonin and antiallergic actions” (priority 1974, dated 1977)", "key": {"[1]": {"assay": "pharmacological activity in experiments on isolated organs and on intact animals (overall)", "description": "(§1) The pharmacological activity of said compounds has been tested in various experiments in isolated organs and on intact narcotized and non-narcotizedanimals. The tests were aimed at establishing and quantitatively determining antihistaminic, antiserotonin, cholinolytic, and also broncholytic activity of the preparations. Moreover, the action of the preparations on increased permeability of the vessels, their antiexudative, antiallergic action were tested on guinea pigs, actively sensitized with ovalbumin with the administration of the antigen in the form of aerosol in effective doses. The effect of the preparations on the central nervous system, namely on the spontaneous motor activity, and also the interaction of the preparations with hypnotic and stimulating preparations, was tested."}, "[2]": {"tested_on": "histamine", "assay": "antihistaminic and antiallergic activity compared with known preparations", "conditions": "for certain experimental antihistaminic and antiallergic activity relative to known preparations: compared with dimedrol and diprasin-pipolfen"}, "[3]": {"tested_on": "ovalbumin", "assay": "anaphylactic reaction of guinea pigs sensitized with ovalbumin, aerosol of ovalbumin", "assay_type": "in vivo", "conditions": "30 mg/kg in the stomach", "description": "as §1"}, "[4]": {"assay": "toxicity (LD50) on various laboratory animals", "assay_type": "in vivo", "description": "The toxicity (LD50) of the preparations was determined with various methods of administration (intravenous, subcutaneous, in the stomach) on various laboratory animals."}, "[5]": {"tested_on": "serotonin", "conditions": "30 mg/kg in the stomach; serotonin aerosol"}, "[6]": {"tested_on": "serotonin and histamine", "assay": "time course of action on bronchoconstriction by serotonin and histamine (Koncett-Rossler method)", "assay_type": "in vivo, guinea pigs", "conditions": "after intravenous injection", "source_text": "The broncheal muscle tone was examined in intact narcotized guinea pigs by the Koncett-Rossler method."}, "[7]": {"tested_on": "serotonin", "conditions": "known antagonist; cited from earlier work"}}}
{"smiles": "OC(c1ccccc1)(C1CCCCC1)C1CN2CCC1CC2", "note": "(centres unmarked) [(phenyl)-(cyclohexyl)-(quinuclidyl- 3) -carbinol]", "values": [{"measurement": "pharmacological activity", "setting": "[1]", "result": "high activity"}]}
{"smiles": "OC(c1ccccc1)(c1cccs1)C1CN2CCC1CC2", "note": "(centres unmarked) [(phenyl)-(thienyl- 2')-(quinuclidyl- 3)carbinol]", "values": [{"measurement": "pharmacological activity", "setting": "[1]", "result": "high activity"}]}
{"smiles": "OC(c1cccs1)(c1cccs1)C1CN2CCC1CC2", "note": "(centres unmarked) [(quinuclidyl-3 )-di(thienyl- 2')-carbinol]", "values": [{"measurement": "pharmacological activity", "setting": "[1]", "result": "high activity"}]}
{"smiles": "COc1ccccc1C(O)(c1ccccc1OC)C1CN2CCC1CC2", "note": "(centres unmarked) [(quinuclidyl-3)-di(2'-methoxyphenyl)carbinol]", "values": [{"measurement": "certain experimental antihistaminic and antiallergic activity relative to known preparations", "setting": "[2]", "result": "superior"}, {"measurement": "protection from anaphylactic reaction", "setting": "[3]", "result": "actively protects"}]}
{"smiles": "OC(c1ccccc1)(c1ccccc1)C1CN2CCC1CC2", "note": "(centres unmarked) [(quinuclidyl-3)-diphenylcarbinol]", "values": [{"measurement": "antihistaminic activity", "setting": "[2]", "result": "high antihistaminic activity"}, {"measurement": "certain experimental antihistaminic and antiallergic activity relative to known preparations", "setting": "[2]", "result": "superior"}, {"measurement": "times less toxic than dimedrol", "setting": "[4]; given in the stomach", "result": 1.5, "unit": "times"}, {"measurement": "times less toxic than dimedrol", "setting": "[4]; given intravenously", "result": 1.5, "unit": "times"}, {"measurement": "pharmacological activity", "setting": "[1]", "result": "high activity"}]}
{"smiles": "CN(C)CCOC(c1ccccc1)c1ccccc1", "note": "[Dimedrol]", "values": [{"measurement": "persistence of the antiserotonin action", "setting": "[5]", "result": "4 to 6", "unit": "h"}, {"measurement": "onset of effect", "setting": "[6]", "result": "immediately"}]}
{"smiles": "CCN(CC)C(=O)[C@@H]1C=C2c3cccc4[nH]cc(c34)C[C@H]2N(C)C1", "note": "[LSD-25, diethylamide lysergic acid]", "values": [{"measurement": "activity as antagonist to serotonin", "setting": "[7]", "result": "one of the most active known antogonists to serotonin"}, {"measurement": "onset of effect", "setting": "[6]", "result": "immediately"}]}
